The values below come from ChEMBL document CHEMBL5653615 (J Biol Chem, 2013).

A word on the inhibition: it is the change of the read-out against control, counted positive when it falls.

The target in test [1] is Phosphorylase b kinase gamma catalytic chain, skeletal muscle/heart isoform (Homo sapiens) (UniProt Q16816). As to the kind of experiment: Inhibition of human PHKg1 at 1.82 nM by HotSpot assay relative to control.
Test [2] has as its target SRSF protein kinase 3 (Homo sapiens) (UniProt Q9UPE1). As to the kind of experiment: Inhibition of human STK23 at 1.82 nM by HotSpot assay relative to control.
Test [3] has as its target T1, Discoidin domain-containing receptor 2 (Homo sapiens) (UniProt Q16832).
T1 sequence (whole entry): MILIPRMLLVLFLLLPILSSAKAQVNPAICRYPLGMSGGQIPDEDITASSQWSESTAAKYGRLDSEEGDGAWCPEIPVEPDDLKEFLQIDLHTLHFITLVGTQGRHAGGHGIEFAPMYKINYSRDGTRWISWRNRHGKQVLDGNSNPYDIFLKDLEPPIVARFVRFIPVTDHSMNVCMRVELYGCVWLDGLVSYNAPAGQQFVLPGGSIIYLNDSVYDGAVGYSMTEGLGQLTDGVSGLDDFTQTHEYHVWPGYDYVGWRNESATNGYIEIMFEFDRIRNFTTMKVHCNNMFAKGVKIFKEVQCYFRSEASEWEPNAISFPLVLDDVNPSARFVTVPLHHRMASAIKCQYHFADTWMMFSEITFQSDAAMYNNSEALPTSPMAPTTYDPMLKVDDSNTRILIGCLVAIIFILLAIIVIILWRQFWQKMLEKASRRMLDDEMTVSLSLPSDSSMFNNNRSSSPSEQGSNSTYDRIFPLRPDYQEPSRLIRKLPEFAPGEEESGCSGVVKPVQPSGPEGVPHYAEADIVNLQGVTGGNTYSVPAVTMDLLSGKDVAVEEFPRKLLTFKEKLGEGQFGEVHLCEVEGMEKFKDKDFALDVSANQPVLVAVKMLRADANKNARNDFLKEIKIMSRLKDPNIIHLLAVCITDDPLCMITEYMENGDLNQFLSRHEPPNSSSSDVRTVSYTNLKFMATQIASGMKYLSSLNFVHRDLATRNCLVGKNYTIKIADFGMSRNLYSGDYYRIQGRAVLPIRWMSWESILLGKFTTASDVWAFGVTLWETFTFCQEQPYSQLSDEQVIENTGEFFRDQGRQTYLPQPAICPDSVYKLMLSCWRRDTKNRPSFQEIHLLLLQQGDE
As to the kind of experiment: Inhibition of human DDR2 at 1.82 nM by HotSpot assay relative to control.

Test [4] concerns the target T2, Serine/threonine-protein kinase STK11 (Homo sapiens) (UniProt Q15831).
T2 sequence (whole entry): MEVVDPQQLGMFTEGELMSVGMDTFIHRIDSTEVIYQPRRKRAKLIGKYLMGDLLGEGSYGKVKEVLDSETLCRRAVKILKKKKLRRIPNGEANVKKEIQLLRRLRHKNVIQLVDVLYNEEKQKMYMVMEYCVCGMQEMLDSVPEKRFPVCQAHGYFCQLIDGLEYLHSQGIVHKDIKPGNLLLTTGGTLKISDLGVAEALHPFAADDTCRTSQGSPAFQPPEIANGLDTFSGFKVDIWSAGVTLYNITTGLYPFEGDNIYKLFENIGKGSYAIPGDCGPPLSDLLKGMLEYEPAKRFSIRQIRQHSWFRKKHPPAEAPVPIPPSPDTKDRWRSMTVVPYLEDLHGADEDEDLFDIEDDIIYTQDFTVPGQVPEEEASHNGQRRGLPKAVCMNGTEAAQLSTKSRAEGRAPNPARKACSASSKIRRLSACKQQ
The test can be described thus: Inhibition of human LKB1 at 1.82 nM by HotSpot assay relative to control.

The target of test [5] is T3, Ephrin type-B receptor 3 (Homo sapiens) (UniProt P54753).
T3 sequence (whole entry): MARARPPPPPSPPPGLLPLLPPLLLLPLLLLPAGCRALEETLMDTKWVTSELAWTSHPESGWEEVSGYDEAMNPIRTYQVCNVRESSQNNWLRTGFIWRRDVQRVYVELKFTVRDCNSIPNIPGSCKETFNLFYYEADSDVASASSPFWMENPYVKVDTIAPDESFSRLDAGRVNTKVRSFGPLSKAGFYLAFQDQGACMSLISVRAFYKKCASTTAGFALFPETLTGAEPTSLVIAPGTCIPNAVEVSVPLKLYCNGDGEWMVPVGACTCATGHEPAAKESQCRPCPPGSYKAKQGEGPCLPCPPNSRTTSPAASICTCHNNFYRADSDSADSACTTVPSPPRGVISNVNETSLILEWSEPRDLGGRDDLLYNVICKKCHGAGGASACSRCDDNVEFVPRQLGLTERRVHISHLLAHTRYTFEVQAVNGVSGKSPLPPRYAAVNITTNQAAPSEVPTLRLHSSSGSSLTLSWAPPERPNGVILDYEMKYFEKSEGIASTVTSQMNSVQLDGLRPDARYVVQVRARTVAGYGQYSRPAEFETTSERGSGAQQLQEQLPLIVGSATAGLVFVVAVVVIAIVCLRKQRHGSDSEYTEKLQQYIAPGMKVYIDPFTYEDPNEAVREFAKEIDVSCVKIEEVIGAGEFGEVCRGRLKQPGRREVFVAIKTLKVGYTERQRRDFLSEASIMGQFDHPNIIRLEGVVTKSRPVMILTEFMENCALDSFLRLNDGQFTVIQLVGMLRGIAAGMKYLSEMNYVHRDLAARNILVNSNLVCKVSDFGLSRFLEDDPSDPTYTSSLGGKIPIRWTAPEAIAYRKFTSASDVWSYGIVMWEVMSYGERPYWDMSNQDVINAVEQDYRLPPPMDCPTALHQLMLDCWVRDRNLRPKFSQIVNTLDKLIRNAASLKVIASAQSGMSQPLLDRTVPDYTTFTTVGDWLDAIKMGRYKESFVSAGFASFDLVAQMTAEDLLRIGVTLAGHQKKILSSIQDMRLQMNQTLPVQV
The test can be described thus: Inhibition of human EPHB3 at 1.82 nM by HotSpot assay relative to control.

The target of test [6] is T4, Serine/threonine-protein kinase 3 (Homo sapiens) (UniProt Q13188).
T4 sequence (whole entry): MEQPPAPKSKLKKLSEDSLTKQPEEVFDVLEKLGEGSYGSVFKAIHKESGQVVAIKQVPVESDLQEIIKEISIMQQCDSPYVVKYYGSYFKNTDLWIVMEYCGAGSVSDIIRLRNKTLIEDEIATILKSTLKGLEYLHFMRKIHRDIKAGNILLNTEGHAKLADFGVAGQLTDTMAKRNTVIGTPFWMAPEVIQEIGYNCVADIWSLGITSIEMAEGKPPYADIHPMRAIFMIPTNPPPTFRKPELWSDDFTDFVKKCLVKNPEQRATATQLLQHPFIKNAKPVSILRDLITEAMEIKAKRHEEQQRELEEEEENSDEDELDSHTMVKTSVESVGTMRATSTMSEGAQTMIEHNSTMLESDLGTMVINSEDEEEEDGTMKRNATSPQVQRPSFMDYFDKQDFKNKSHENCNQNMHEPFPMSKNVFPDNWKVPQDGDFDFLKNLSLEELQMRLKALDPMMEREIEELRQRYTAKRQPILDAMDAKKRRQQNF
The test can be described thus: Inhibition of human STK3 at 18.6 nM by HotSpot assay relative to control.

SRSF protein kinase 3 (Homo sapiens), sequence (Q9UPE1 whole entry, the tested form may be a part): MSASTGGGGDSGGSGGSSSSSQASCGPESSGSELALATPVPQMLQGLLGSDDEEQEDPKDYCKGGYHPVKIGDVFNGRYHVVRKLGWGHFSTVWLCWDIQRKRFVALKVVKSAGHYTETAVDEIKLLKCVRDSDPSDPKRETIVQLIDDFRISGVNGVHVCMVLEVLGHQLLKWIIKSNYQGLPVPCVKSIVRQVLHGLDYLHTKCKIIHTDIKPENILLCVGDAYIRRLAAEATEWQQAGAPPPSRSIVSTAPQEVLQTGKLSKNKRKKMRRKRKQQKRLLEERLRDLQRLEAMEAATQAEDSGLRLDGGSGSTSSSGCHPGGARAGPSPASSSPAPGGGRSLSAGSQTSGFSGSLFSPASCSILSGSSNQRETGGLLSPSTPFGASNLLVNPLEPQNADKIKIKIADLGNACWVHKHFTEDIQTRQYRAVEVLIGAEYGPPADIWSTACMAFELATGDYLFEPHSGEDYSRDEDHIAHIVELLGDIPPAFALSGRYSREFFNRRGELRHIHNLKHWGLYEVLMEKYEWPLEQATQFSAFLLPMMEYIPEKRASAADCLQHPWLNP
Phosphorylase b kinase gamma catalytic chain, skeletal muscle/heart isoform (Homo sapiens), sequence (Q16816 whole entry, looked up, canonical isoform): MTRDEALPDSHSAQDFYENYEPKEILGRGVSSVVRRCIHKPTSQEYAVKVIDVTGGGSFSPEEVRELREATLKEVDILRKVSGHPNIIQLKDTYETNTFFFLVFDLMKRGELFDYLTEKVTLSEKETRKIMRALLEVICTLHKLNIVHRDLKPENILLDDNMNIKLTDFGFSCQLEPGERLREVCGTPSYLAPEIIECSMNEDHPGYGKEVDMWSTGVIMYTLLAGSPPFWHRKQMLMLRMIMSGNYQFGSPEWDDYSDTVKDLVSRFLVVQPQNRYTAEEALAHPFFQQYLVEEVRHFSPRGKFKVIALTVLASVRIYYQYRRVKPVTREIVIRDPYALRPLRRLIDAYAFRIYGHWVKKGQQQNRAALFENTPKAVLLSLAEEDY

As for `C[C@@]1(C(=O)Nc2ccc(F)nc2)CCCN1c1nc(Nc2cc(C3CC3)n[nH]2)c2cccn2n1`, the inhibition was 2.68% in test [1]; -7.78% in test [2]; -7.91% in test [3]; 4.47% in test [4]; 2.89% in test [5].
Take `C[C@]1(O)C[C@@H](c2nc(-c3ccc4ccc(-c5ccccc5)nc4c3)c3c(N)nccn32)C1`: the inhibition in test [6] is -2.45%.
